Experiment [1] deals with lung adenocarcinoma cell strain A240286S. The experiment is described as follows: Verification test of cisplatin concentrations by IC50 determination (cell counting). The format is cell-based, human. The following applies: 72 hours; 15 evaluable test preparations; read-out: IC50-values of A240286S cells in the verification tests, average. The procedure:
The final concentration gradients were pre-incubated for approximately 30 minutes under standard conditions (see above). […] The culture plate was then incubated, in parallel with the culture plate fitted with the tumor digests, for 72 hours under standard conditions. In the batches of the verification test (with the cells of the lung adenocarcinoma cell strain A240286S) the culture medium was decanted after the end of incubation. The present cellular layers were rinsed with PBS, drained and then removed from the culture vessel with Accutase. The cells were isolated by passing them through a blunt cannula no. 20. Using a cell-counting-and-analyzing apparatus (here the Casy I Cell Analyzer from Roche, Basel), the cell density was determined for each test batch and reduced by the inoculum.

The subject of experiment [2] is tumor cells of lung cancer (bronchial carcinoma) tissue samples. The experiment is described as follows: Chemosensitivity test (IC50 determination) by colony formation in tumor digests ex vivo. Type of experiment: cell-based, human. The procedure:
Parts of freshly (under general anesthesia of the patient) taken (here biopsied) lung cancer (bronchial carcinoma) tissue were transported to the laboratory and processed immediately for IC50 determination.
The transport to the laboratory should take place in chilled culture medium. For this purpose in particular HEPES- and NaHCO3-buffered, preferably flavin-free RPMI 1640 culture medium containing 10% fetal bovine serum, 100 IU/mL penicillin G, 100 ug/mL streptomycin, 20 μg/mL Amikacin (as antibiotics) and […] Voriconazole (as an antifungal agent) are suitable.
In the laboratory, this tumor tissue samples were cleaned, weighed, minced and suspended in culture medium.
For this purpose in particular the method according to DE 102012003700 B3 is suitable, wherein about 5.5 mg tumor tissue sample per 1 mL of culture medium are subjected to enzymatic digestion with collagenase, preferably by using Clostridium histolytikum collagenase (Sigma, 230 CDU/mL), in a Petri dish under standard conditions in a gassing incubator (36-37° C., 3.5% CO2 in water vapor saturated air) for 4-5 hours.
Following the collagenase digestion, the digestion product is centrifuged at 50×g, the supernatant is discarded and the pellet is resuspended in 1 mL of fresh culture medium. With this resuspension—hereinafter referred to as “tumor digest”—the chemosensitivity test (IC50 determination) is performed
The thus prepared culture plates were pre-incubated for about 1 hour under standard conditions (i.e.: gassing incubator; 36-37° C.; 3.5% CO2 in water vapor saturated air). Subsequently, 150 μl tumor digest were added to these pre-incubated wells, they were incubated for 72 hours under standard conditions (see above), and then analyzed microscopically.
After the end of incubation, in all tumor digest test preparations the culture medium was removed, and the existing cell colonies were rinsed with phosphate buffered saline (PBS) and drained. Subsequently, the cells were fixed with methanol at minus (−) 25° C. for 5 to 10 minutes and then subjected to Giemsa staining according to Gurr.

Experiment [3] relates to bronchial carcinoma (lung cancer). Nature of the experiment: Therapy outcome of chemotherapy in patients, assessed by computer tomography after two to three cycles. Type of experiment: in vivo, human. Further details: key: PR=partial response (i.e. the carcinoma has become detectably smaller); NC=“No Change”=zero growth of the carcinoma; Progress=the carcinoma has continued to grow, no therapeutic success. The following applies: patient tumor ID 282, NSCLC/St. IV; without platinum derivatives. An excerpt: The therapy outcome, namely the change or the state of the tumor after two to three cycles of treatment compared to the state before the start of treatment, has been analyzes by computer tomography and classified on the basis of the “standard”—rating scale known and conventional in the art as class I=complete remission (CR), class II=partial remission (PR), class III=zero growth (“no change”, NC) and class IV=Progress (progressive tumor growth). The therapy outcomes achieved are shown in table 1, column 5 and in table 2 in column 3 of each group (1 to 4).

From patent US20160103122A1, “METHOD FOR THE CREATION OF A DATABASE FOR INITIAL ASSESSMENT OF THE EFFECTIVENESS OF ACTIVE AGENTS IN TUMOR THERAPY” (FLACOD GMBH, priority 2013, published 2016) come the findings set out here.

Values joined by “and” are separate entries in the source; they are usually repeats but may differ in a detail not shown here. Equal entries are not always repeated. Where two headings read alike, the source gives them in different places.

For the molecule `N.N.[Cl][Pt][Cl]` [cisplatin], the IC50 was 1.2 µM in experiment [1]; 3.64 µM in experiment [2] (Group 1 (IC50 < 5 μM), 3 tumor samples, read-out: IC50 mean value); 6.73 µM and 6.72 µM in experiment [2] (Group 2 (IC50 ≧ 5 < 8 μM), 7 tumor samples, read-out: IC50 mean value); 21.1 µM in experiment [2] (Group 3 (IC50 ≧ 8 bis 25.6 μM), 5 tumor samples, read-out: IC50 mean value); 2.6 µM in experiment [2] (tumor sample ID 220, SCLC/St. IV, 72 hours, colonies of epithelial tumor cells, read-out: IC50); 7.77 µM in experiment [2] (tumor sample ID 221, NSCLC/St. IV, 72 hours, read-out: IC50). Moreover, the IC50 in experiment [2] (tumor sample ID 228, NSCLC/St. IV, 72 hours, read-out: IC50) was more than 26 µM; in experiment [2] (tumor sample ID 233, NSCLC/St. IV, 72 hours, read-out: IC50), more than 26 µM; in experiment [2] (tumor sample ID 245, NSCLC/St. IV, 72 hours, read-out: IC50), 7.74 µM; in experiment [2] (tumor sample ID 255, SCLC/St. IV, 72 hours, read-out: IC50), 4.58 µM; in experiment [2] (tumor sample ID 258, NSCLC/St. IV, 72 hours, read-out: IC50), 16.7 µM; in experiment [2] (tumor sample ID 260, NSCLC/St. IIIb, 72 hours, read-out: IC50), 5.61 µM. Besides, the IC50 is 21 µM in experiment [2] (tumor sample ID 272, SCLC/St. IV, 72 hours, read-out: IC50); 5.38 µM in experiment [2] (tumor sample ID 275, NSCLC/St. IV, 72 hours, read-out: IC50); 7.58 µM in experiment [2] (tumor sample ID 277, NSCLC/St. IIIa, 72 hours, read-out: IC50); 5.25 µM in experiment [2] (tumor sample ID 278, NSCLC/St. IV (adenocarcinoma), 72 hours, read-out: IC50); 3.73 µM in experiment [2] (tumor sample ID 279, NSCLC/St. IV (squamous cell carcinoma), 72 hours, read-out: IC50); 14.8 µM in experiment [2] (tumor sample ID 282, NSCLC/St. IV, 72 hours, read-out: IC50). Moreover, the IC50 is 7.7 µM in experiment [2] (tumor sample ID 294, NSCLC/St. IV, 72 hours, read-out: IC50); 25.6 µM in experiment [2] (tumor sample ID 297, NSCLC/St. IV, 72 hours, read-out: IC50); 22.1 µM in experiment [2] (tumor sample ID 311, NSCLC/KI. IIIb, 72 hours, read-out: IC50); 20.5 µM in experiment [2] (tumor sample ID 314, NSCLC/KI. IV, 72 hours, read-out: IC50).
Consider `Nc1ccn([C@@H]2O[C@H](CO)[C@@H](O)C2(F)F)c(=O)n1` [Gemcitabine], for which the Therapy outcome in experiment [3] was “Progress”.

Usually IC50 stands for the point on the concentration scale where inhibition reaches its midpoint.
